From patent US20200369728A1, “PEPTIDOMIMETIC MACROCYCLES AND USES THEREOF” (Aileron Therapeutics, Inc., priority 2015, published 2020)
Bridge positions count the residues as written; N and C are the ends. Square brackets hold non-standard residues; d marks the D form. Peptide text beside a SMILES is read from it. R8 = C=CCCCCCC[C@@](C)(N)C(=O)O; S5 = C=CCCC[C@](C)(N)C(=O)O

How the values were obtained:
Caspase 3 = Caspase 3 detection assay in SJSA1 cells; format: cell-based; details: SJSA1, 48 h, Caspase 3 activation over DMSO-treated cells
RKO = experiment: Cell viability assay (MTT), RKO; details: read-out: RKO EC50 (72 h)
SJSA-1 cells = experiment: Cell lysis by peptidomimetic macrocycles (LDH release); format: cell-based; details: SJSA-1, 1 h
Summary of the method: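 Membrane lysis measured as supernatant LDH after a 1 h, 37 °C exposure of SJSA-1 cells, held in RPMI with 1% FBS, to macrocycles at final 6.25-50 μM with 0.5% DMSO. Lytic references were 10 μM melittin and 1% Triton X-100; DMSO alone served as non-lytic control.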

CC(=O)N[C@@H](CC(C)C)C(=O)N[C@H](C(=O)N[C@@H](Cc1ccccc1)C(=O)N[C@]1(C)CCCCCCC=CCCC[C@@](C)(C(=O)N[C@@H](C)C(=O)N[C@H](C(=O)NCC(N)=O)C(C)C)NC(=O)[C@H](CC(C)C)NC(=O)[C@H](CCC(N)=O)NC(=O)[C@H](C)NC(=O)[C@H](Cc2c[nH]c3ccccc23)NC(=O)[C@H](Cc2ccc(O)cc2)NC(=O)[C@H](C)NC1=O)[C@@H](C)O (single isomer, unassigned) [compound 109]
caspase 3 μM (Caspase 3): 4 | caspase 10 μM (Caspase 3): 16 | caspase 30 μM (Caspase 3): 25 | EC50 (RKO): < 5 µM

CCCC[C@H](NC(=O)[C@H](C)NC(=O)[C@H](C)NC(=O)[C@]1(C)CCCC=CCCCCCC[C@@](C)(NC(=O)[C@H](Cc2ccccc2)NC(=O)[C@@H](NC(=O)[C@H](CC(C)C)NC(=O)CN(C)C)[C@@H](C)O)C(=O)N[C@@H](C)C(=O)N[C@@H](Cc2ccc(O)cc2)C(=O)N[C@@H](Cc2c[nH]c3ccccc23)C(=O)N[C@@H](C)C(=O)N[C@@H](CCC(N)=O)C(=O)N[C@@H](CC(C)C)C(=O)N1)C(=O)N[C@@H](C)C(N)=O (single isomer, unassigned) [compound 442]
EC50 (RKO): < 5 µM

CC(C)C[C@H](NC(=O)CN(C)C)C(=O)N[C@H](C(=O)N[C@@H](Cc1ccccc1)C(=O)N[C@]1(C)CCCCCCC=CCCC[C@@](C)(C(=O)N[C@@H](C)C(=O)N[C@@H](C)C(=O)N[C@@H](C)C(=O)N[C@@H](C)C(=O)N[C@@H](C)C(=O)N[C@H](C)C(N)=O)NC(=O)[C@H](CC(C)C)NC(=O)[C@H](CCC(N)=O)NC(=O)[C@H](C)NC(=O)[C@H](Cc2c[nH]c3ccccc23)NC(=O)[C@H](Cc2ccc(O)cc2)NC(=O)[C@H](C)NC1=O)[C@@H](C)O (single isomer, unassigned) [compound 436]
EC50 (RKO): < 5 µM

CSCC[C@H](NC(=O)[C@H](C)NC(=O)[C@H](CO)NC(=O)[C@]1(C)CCCC=CCCCCCC[C@@](C)(NC(=O)[C@H](Cc2ccccc2)NC(=O)[C@@H](NC(=O)[C@H](CC(C)C)NC(C)=O)[C@@H](C)O)C(=O)N[C@@H](C)C(=O)N[C@@H](Cc2ccc(O)cc2)C(=O)N[C@@H](Cc2c[nH]c3ccccc23)C(=O)N[C@@H](C)C(=O)N[C@@H](CCC(N)=O)C(=O)N[C@@H](CC(C)C)C(=O)N1)C(N)=O [compound 5] (Ac-LTF[R8]AYWAQL[S5]SAM-NH2; staple 4-11)
EC50 (RKO): < 5 µM

CCCC[C@H](NC(=O)[C@H](C)NC(=O)[C@H](C)NC(=O)[C@]1(C)CCCC=CCCCCCC[C@@](C)(NC(=O)[C@H](Cc2ccccc2)NC(=O)[C@@H](NC(=O)[C@H](CC(C)C)NC(C)=O)[C@@H](C)O)C(=O)N[C@@H](C)C(=O)N[C@@H](Cc2ccc(O)cc2)C(=O)N(C)[C@@H](Cc2c[nH]c3ccccc23)C(=O)N[C@@H](C)C(=O)N[C@@H](CCC(N)=O)C(=O)N[C@@H](CC(C)C)C(=O)N1)C(=O)N[C@@H](C)C(N)=O (single isomer, unassigned) [compound 386]
EC50 (RKO): < 5 µM

CCCC[C@H](NC(=O)[C@H](C)NC(=O)[C@H](C)NC(=O)[C@]1(C)CCCCCCCCCCC[C@@](C)(NC(=O)[C@H](Cc2ccccc2)NC(=O)[C@@H](NC(=O)[C@H](CC(C)C)NC(C)=O)[C@@H](C)O)C(=O)N[C@@H](C)C(=O)N[C@@H](Cc2ccc(O)cc2)C(=O)N[C@@H](Cc2c[nH]c3ccccc23)C(=O)N[C@@H](C)C(=O)N[C@@H](CCC(N)=O)C(=O)N[C@@H](CC(C)C)C(=O)N1)C(=O)N[C@@H](C)C(N)=O [compound 444]
EC50 (RKO): < 5 µM

CC(C)C[C@H](NC(=O)CN(C)C)C(=O)N[C@H](C(=O)N[C@@H](Cc1ccccc1)C(=O)N[C@]1(C)CCCCCCC=CCCC[C@@](C)(C(=O)N[C@@H](CO)C(=O)N[C@@H](C)C(=O)N[C@@H](C)C(N)=O)NC(=O)[C@H](CC2CCC2)NC(=O)[C@H](CCC(N)=O)NC(=O)[C@H](C)NC(=O)[C@H](Cc2c[nH]c3ccccc23)NC(=O)[C@H](Cc2ccc(O)cc2)NC(=O)[C@H](CCC(=O)O)NC1=O)[C@@H](C)O [compound 435]
EC50 (RKO): 15 to 30 µM

CCCC[C@H](NC(=O)[C@H](C)NC(=O)[C@H](C)NC(=O)[C@]1(C)CCC/C=C/CCCCCC[C@@](C)(NC(=O)[C@H](Cc2ccccc2)NC(=O)[C@@H](NC(=O)[C@H](CC(C)C)NC(C)=O)[C@@H](C)O)C(=O)N[C@@H](C)C(=O)N[C@@H](Cc2ccc(O)cc2)C(=O)N[C@@](C)(Cc2c[nH]c3ccccc23)C(=O)N[C@@H](C)C(=O)N[C@@H](CCC(N)=O)C(=O)N[C@@H](CC(C)C)C(=O)N1)C(=O)N[C@@H](C)C(N)=O [compound 388]
EC50 (RKO): 15 to 30 µM

CCCC[C@H](NC(=O)[C@H](C)NC(=O)[C@H](C)NC(=O)[C@]1(C)CCCC=CCCCCCC[C@@](C)(NC(=O)[C@H](Cc2ccccc2)NC(=O)[C@@H](NC(=O)[C@H](CC(C)C)NC(C)=O)[C@@H](C)O)C(=O)N[C@@H](C)C(=O)N[C@@H](Cc2ccc(O)cc2)C(=O)N[C@@H](Cc2c[nH]c3ccccc23)C(=O)NC(C)(C)C(=O)N[C@@H](CCC(N)=O)C(=O)N[C@@H](CC(C)C)C(=O)N1)C(=O)N[C@@H](C)C(N)=O (single isomer, unassigned) [compound 390]
EC50 (RKO): < 5 µM

CC(=O)N[C@@H](CC(C)C)C(=O)N[C@H](C(=O)N[C@@H](Cc1ccccc1)C(=O)N[C@]1(C)CCCCCCCCCCC[C@@](C)(C(=O)N[C@@H](C)C(=O)N[C@@H](C)C(=O)N[C@@H](C)C(=O)N[C@@H](C)C(=O)N[C@@H](C)C(=O)N[C@H](C)C(N)=O)NC(=O)[C@H](CC(C)C)NC(=O)[C@H](CCC(N)=O)NC(=O)[C@H](C)NC(=O)[C@H](Cc2c[nH]c3ccccc23)NC(=O)[C@H](Cc2ccc(O)cc2)NC(=O)[C@H](CCC(=O)O)NC1=O)[C@@H](C)O [compound 445]
EC50 (RKO): 5 to 15 µM

CC(C)C[C@H](NC(=O)CN(C)C)C(=O)N[C@H](C(=O)N[C@@H](Cc1ccccc1)C(=O)N[C@]1(C)CCCCCC/C=C/CCC[C@@](C)(C(=O)N[C@@H](C)C(=O)N[C@@H](C)C(=O)N[C@@H](C)C(=O)N[C@@H](C)C(=O)N[C@@H](C)C(=O)N[C@H](C)C(N)=O)NC(=O)[C@H](CC(C)C)NC(=O)[C@H](CCC(N)=O)NC(=O)[C@H](C)NC(=O)[C@H](Cc2c[nH]c3ccccc23)NC(=O)[C@H](Cc2ccc(O)cc2)NC(=O)[C@H](C)NC1=O)[C@@H](C)O [compound 437]
EC50 (RKO): < 5 µM

CC[C@H](C)[C@H](NC(=O)[C@H](C)NC(=O)[C@H](C)NC(=O)[C@]1(C)CCCC=CCCCCCC[C@@](C)(NC(=O)[C@H](Cc2ccccc2)NC(=O)[C@@H](NC(=O)[C@H](CC(C)C)NC(=O)CN(C)C)[C@@H](C)O)C(=O)N[C@@H](CCC(=O)O)C(=O)N[C@@H](Cc2ccc(C(=O)O)cc2)C(=O)N[C@@H](Cc2c[nH]c3ccccc23)C(=O)N[C@@H](C)C(=O)N[C@@H](CCC(N)=O)C(=O)N[C@@H](CC2CCC2)C(=O)N1)C(=O)N[C@H](C)C(N)=O (single isomer, unassigned) [compound 440]
EC50 (RKO): 15 to 30 µM

CC[C@H](C)[C@H](NC(=O)[C@H](C)NC(=O)[C@H](C)NC(=O)[C@]1(C)CCCC=CCCCCCC[C@@](C)(NC(=O)[C@H](Cc2ccccc2)NC(=O)[C@@H](NC(=O)[C@H](CC(C)C)NC(C)=O)[C@@H](C)O)C(=O)N[C@@H](CCC(=O)O)C(=O)N[C@@H](Cc2c[nH]cn2)C(=O)N[C@@H](Cc2c[nH]c3ccccc23)C(=O)N[C@@H](C)C(=O)N[C@@H](CCC(N)=O)C(=O)N[C@@H](CC(C)C)C(=O)N1)C(=O)N[C@H](C)C(N)=O (single isomer, unassigned) [compound 223]
6.25 μM % Lysed cells (1 h LDH) (SJSA-1 cells): −2% | 25 μM % Lysed cells (1 h LDH) (SJSA-1 cells): −4% | 50 μM % Lysed cells (1 h LDH) (SJSA-1 cells): −1% | caspase 0.3 μM (Caspase 3): 1 | caspase 3 μM (Caspase 3): 1 | caspase 10 μM (Caspase 3): 5 | caspase 30 μM (Caspase 3): 18

CC(=O)N[C@@H](CC(C)C)C(=O)N[C@H](C(=O)N[C@@H](Cc1ccccc1)C(=O)N[C@]1(C)CCCCCCC=CCCC[C@@](C)(C(=O)N[C@@H](C)C(=O)N[C@@H](C)C(=O)N[C@H](C(=O)N[C@H](C)C(N)=O)C(C)C)NC(=O)[C@H](CC(C)C)NC(=O)[C@H](CCC(N)=O)NC(=O)[C@H](C)NC(=O)[C@H](Cc2c[nH]c3ccccc23)NC(=O)[C@H](Cc2ccc(O)cc2)NC(=O)[C@H](CCC(=O)O)NC1=O)[C@@H](C)O (single isomer, unassigned) [compound 221]
6.25 μM % Lysed cells (1 h LDH) (SJSA-1 cells): 3% | 25 μM % Lysed cells (1 h LDH) (SJSA-1 cells): 3% | 50 μM % Lysed cells (1 h LDH) (SJSA-1 cells): 11% | caspase 0.3 μM (Caspase 3): 1 | caspase 3 μM (Caspase 3): 3 | caspase 10 μM (Caspase 3): 6 | caspase 30 μM (Caspase 3): 12

CC[C@H](C)[C@H](NC(=O)[C@H](C)NC(=O)[C@H](C)NC(=O)[C@]1(C)CCCC=CCCCCCC[C@@](C)(NC(=O)[C@H](Cc2ccccc2)NC(=O)[C@@H](NC(=O)[C@H](CC(C)C)NC(C)=O)[C@@H](C)O)C(=O)N[C@@H](C)C(=O)N[C@@H](Cc2ccc(O)cc2)C(=O)N[C@@H](Cc2c[nH]c3ccccc23)C(=O)N[C@@H](C)C(=O)N[C@@H](C)C(=O)N[C@@H](CC(C)C)C(=O)N1)C(=O)N[C@@H](C(N)=O)C(C)C (single isomer, unassigned) [compound 77]
6.25 μM % Lysed cells (1 h LDH) (SJSA-1 cells): −2% | 25 μM % Lysed cells (1 h LDH) (SJSA-1 cells): 1% | 50 μM % Lysed cells (1 h LDH) (SJSA-1 cells): −1% | caspase 0.3 μM (Caspase 3): 1 | caspase 3 μM (Caspase 3): 2 | caspase 10 μM (Caspase 3): 19 | caspase 30 μM (Caspase 3): 23
